The results in this text go back to paper PMC3948622, “Docking, Synthesis and Antiproliferative Activity of N-Acylhydrazone Derivatives Designed as Combretastatin A4 Analogues” (PLoS ONE, 2014).

SMILES strings stand for the structures. ≈ marks a conversion by molar mass, not a printed value.

One data set has as its system BALB/c nude mice. To be noted: intraperitoneally for 4 consecutive days, HFA. How it is done:
During the HFA, tumor cells (i.e., SF-295 and HCT-116) were cultivated within biocompatible, semipermeable polyvinylidene fluoride hollow fibers (HFs) and subcutaneously (s.c.) implanted within the dorsal portion of BALB/c nude mice. LASSBio-1586 (5b) and 5-Fluorouracil (5-FU), which was the positive control, were administered intraperitoneally for 4 consecutive days. On day 5, the fibers were removed to quantify the antiproliferative activity of 5b and 5-FU.
A total of 26 female BALB/c nude (nu/nu) mice aging 6–8 weeks were obtained from the animal facilities of State University of São Paulo (USP), Faculty of Medicine, São Paulo (SP), Brazil. They were kept in well-ventilated and sterile cages (Alesco, São Paulo) under standard conditions of light (12 h with alternative day and night cycles) and temperature (22±1°C) and were housed with access to commercial sterile rodent stock diet (Nutrilabor, São Paulo, Brazil) and water ad libitum. As previously mentioned procedures are in accordance with guidelines for the welfare of animals in experimental neoplasia and with national and international standard on the care and use of experimental laboratory animals and were approved by the local Ethical Committee on Animal Research (Process No. 102/2007).
Mice were anaesthetized with ketamine (90 mg/kg) - xylazine (4.5 mg/kg) (Sigma Aldrich). Groups were divided into: a) Negative control (DMSO 5%, n = 6); b) Positive control (5-Flouoruracil, 5-FU, 25 mg/kg/day, n = 7) (Sigma Aldrich); c) LASSBio-1586 (5b; 25 mg/kg/day, n = 7); d) LASSBio-1586 (5b; 50 mg/kg/day, n = 6). A small incision in the neck was incised to permit subcutaneous (s.c.) implantation of the fibers in the dorsal part of the animal. Each animal received 2 fibers at s.c. site. All incisions were sealed with a surgical stapler. The test compounds were administered intraperitoneally during 4 consecutive days. On day 5, fibers were removed to quantify the antiproliferative capacity as described above.

The subject of data set [1] is HCT-116 (colon carcinoma). Description: Hollow Fiber Assay (HFA), HCT-116 fibers s.c. in mice. The data set is classed as in vivo, BALB/c nude mice. To be noted: 25 mg/kg/day intraperitoneally, 4 days. How it is done: (§1) Cell culture of SF-295 (glioblastoma) and HCT-116 (colon carcinoma) was performed in RPMI 1640 medium supplemented with 10% fetal bovine serum, 2 mM glutamine, at 37°C with 5% CO2.
(§2) Polyvinylidene fluoride (PVDF) HFs with a 1-mm internal diameter and a molecular weight cutoff point of 500 kDa were used (Spectrum Laboratories, Houston, TX). The fibers were cut into pieces 12–15 cm long, washed 2× with sterile distilled water and kept in sterile conditions.
(§3) Before use, under sterile conditions, the fibers were incubated in complete RPMI with 20% fetal bovine serum (FBS) overnight (packaging time). Cell viability was assessed by trypan blue exclusion assay. Then, a cell suspension of 7.0×10^6 cell/mL at 4°C was injected into the fiber, with the ends thereof immediately heat-sealed. The fibers were cut into 2 cm each, transferred to petri plates and incubated in complete RPMI medium for 24 h prior to implantation in mice. Each cell was injected into one fiber of a different color (HCT-116, yellow fibers; SF-295, blue fibers).
(§4) Each animal received 2 fibers at s.c. site. All incisions were sealed with a surgical stapler.
(§5) Tumor cell proliferation was quantified through the ability of living cells to reduce the yellow dye 3-(4,5-dimethyl-2-thiazolyl)-2,5-diphenyl-2H-tetrazolium bromide (MTT, Sigma Aldrich) to a purple formazan product. For this purpose, the fibers removed from animals were incubated with MTT 1 mg/mL in 6-well plates during 4 h at 37°C, 5% CO2 and 95% humidity. The MTT solution was aspirated; fibers were washed with saline solution containing protamine sulphate 2.5% and incubated in protamine solution overnight at 4°C. Fibers were transferred to 24 well plates, cut into 2 or 3 pieces and put to dry. The formazan was dissolved in […] of DMSO, aliquots (150 uL) were transferred to 96 well plates and absorbance was measured at 595 nm (DTX-880, Beckman Coulter).

Another data set deals with SF-295 (glioblastoma). Description: Hollow Fiber Assay (HFA), SF-295 fibers s.c. in mice. The data set is classed as in vivo, BALB/c nude mice. To be noted: 25 mg/kg/day intraperitoneally, 4 days. As for the experimental part:
as §1, §2, §3, §4, §5

Data set [2] relates to MDA-MB435 (melanoma). Put plainly: In vitro antiproliferative MTT assay, MDA-MB435. Format: cell-based. Particulars: IC50 for human lymphocytes/IC50 for cancer cell line. How it is done:
(§6) The antiproliferative activity of compounds 5a–r was determined based on an MTT assay and using CA-4 as standard against the tumor cell lines: HL-60 (human leukemia), SF-295 (human glioblastoma), MDA-MB435 (melanoma), PC3M (prostate cancer), OVCAR-8 (ovaries adenocarcinoma), NCI-H258M (pulmonary bronchio-alveolar carcinoma) and HCT-8 (adenocarcinoma ileocecal) (Table 2). To determine the selectivity index of compounds 5a–r, their antiproliferative profile was also evaluated toward human lymphocytes (Table 2).
(§7) Compounds (0.009–5 µg/mL) were tested for cytotoxic activity against selected cancer cell lines: SF-295 (glioblastoma), HCT-8 (colon), MDAMB-435 (melanoma), HL60 (leukemia), PC3M (prostate cancer), OVCAR-8 (ovaries adenocarcinoma) and NCI-H258M (pulmonary bronchio-alveolar carcinoma). All cell lines were kindly obtained from the National Cancer Institute (Bethesda, MD, USA).Tumor cell proliferation was quantified through the ability of living cells to reduce the yellow dye 3-(4,5-dimethyl-2-thiazolyl)-2,5-diphenyl-2H-tetrazolium bromide (MTT, Sigma Aldrich)) to a purple formazan product and absorbance was measured at 595 nm (DTX-880, Beckman Coulter).

For data set [3], the system named is OVCAR-8 (ovaries adenocarcinoma). Put plainly: In vitro antiproliferative MTT assay, OVCAR-8. The data set is classed as cell-based. As for the experimental part: as §6, §7
In a further data set the test system is HL-60 (human leukemia). Description: In vitro antiproliferative MTT assay, HL-60. Format: cell-based. How it is done:
as §6, §7

Data set [4] is described as follows: Aqueous solubility assay by ultraviolet spectroscopy. The data set is classed as physicochemical. To be noted: water (saturated aqueous solution), thermodynamic from solid, 2 hours at 37°C, read-out: Aq. Solubility. How it is done:
Ultraviolet spectroscopy was performed using Femto spectrophotometer. The wavelength used in solubility assay was determined by the -λ max characteristic of each compound. Spectra were analyzed in Femtoscan software. Mass spectrometry was obtained by positive ionization at Bruker AmaZon SL and data analyzed in Compass 1.3.SR2 software.
The solubility assay was performed considering the absorptivity of compounds in ultraviolet spectroscopy as described by Schneider and coworkers. The assay wavelength was determined by the λ max characteristic of each compound.
Saturated aqueous solutions were prepared (0.01 mg/mL) and were kept under stirring for 2 hours at 37°C. The supernatant was filtered in 0,45 µm filters and transferred to a quartz cuvette (10 mm) to spectra acquisition.
Solubility was determined by linear regression using as graph plots, solutions prepared by dilutions of the original solution in methanol. The data were obtained in triplicates and the mean values were used to the graph plots. The correlation coefficient (R^2) values were between 0.9972 and 0.9999.

Data set [5] deals with MDA-MB435 (melanoma). Put plainly: In vitro antiproliferative MTT assay, MDA-MB435. The data set is classed as cell-based. Particulars: Homo sapiens, MDA-MB-435; Table 2; MTT.
In data set [6] the test system is NCI-H358M (pulmonary bronchio-alveolar carcinoma). Put plainly: In vitro antiproliferative MTT assay, NCI-H358M. The data set is classed as cell-based.
For another data set, the system named is human lymphocytes. Put plainly: In vitro antiproliferative assay, human lymphocytes. To be noted: Lymphocyte, Table 2. The data set is classed as cell-based. How it is done: as §6
To investigate the selective cytotoxic activity of the N-acylhydrazones derivatives (5a–r), their antiproliferative potency was also assessed toward human lymphocytes and the results were compared to the data from CA-4 ([…]). The selectivity index (SI), which was the IC50 for human lymphocytes/IC50 for cancer cell lines after treatment with CA-4 and N-acylhydrazones (5a–r), was calculated, as depicted in Table 3. […] The best comparative selectivity indices (CA-4 vs 5b) were obtained from the SF-295 (SI = 13), MDA-MB435 (SI = 42) and NCI-H258M (SI = 9.5) tumor cell lines, and the worst results were found for OVCAR-8 (SI = 0.5).

Data set [7] concerns SF-295 (human glioblastoma). Put plainly: In vitro antiproliferative MTT assay, SF-295. Format: cell-based. As for the experimental part:
as §6, §7
For orientation: Formazan colour is commonly taken as a measure of viable cells.

For the next data set, the system named is PC3M (prostate cancer). Put plainly: In vitro antiproliferative MTT assay, PC3M. Format: cell-based. As for the experimental part: as §6, §7
Another data set has as its system tumor cell lines. Description: In vitro antiproliferative MTT assay, tumor cell lines (summary over the panel). Format: cell-based. To be noted: summary in text over the cell lines of Table 2; read-out: IC50 (antiproliferative potency over the tumor cell lines). How it is done:
as §6, §7

The subject of data set [8] is HCT-8 (adenocarcinoma ileocecal). Description: In vitro antiproliferative MTT assay, HCT-8. Format: cell-based. As for the experimental part: as §6, §7
Where [9] appears, read: IC50 for human lymphocytes/IC50 for cancer cell line.

Take `O=c1[nH]cc(F)c(=O)[nH]1` [Compound 5-FU, 5-Fluorouracil, reference compound]: in the data set with BALB/c nude mice, the “deaths of mice during treatment” value is listed as “no deaths occurred”. Further, in [1], the “Inhibition (%) HCT-116” value worked out at 62.08%. Moreover, the “Proliferation (OD595 nm) HCT-116” value in data set [1] (mean ± S.E.M.) came to 0.59±0.10 OD595 nm. In addition, the “Inhibition (%) SF-295” value in the data set with SF-295 (glioblastoma) is 65.40%. The “Proliferation (OD595 nm) SF-295” value in the data set with SF-295 (glioblastoma) (mean ± S.E.M.) was 0.52±0.08 OD595 nm.

Usually IC50 stands for the concentration that gives 50% inhibition. As usually defined, the melting point is the temperature, or range, at which the solid turns liquid. For orientation: solubility means the dissolved amount per volume that the medium holds. The compound `COc1cc(C(=O)N/N=C/c2ccc(-c3ccccc3)cc2)cc(OC)c1OC` [Compound 5n, (E)-N′-(biphenyl-4-ylmethylene)-3,4,5-trimethoxyibenzohydrazide] displayed a melting point of 187 to 188 °C. Further, the “SI Lymphocyte/ MDA-MB345” value with MDA-MB435 (melanoma) [2] amounted to 1.0. In addition, the IC50 in data set [3] (Homo sapiens, OVCAR-8, Table 2, MTT) is over 25 µM. The “SI Lymphocyte/ OVCAR-8” value in data set [3] (setting [9]) is 1. This compound also showed an IC50 in the data set with HL-60 (human leukemia) (Homo sapiens, HL-60, Table 2, MTT) of over 25 µM. Also, the “SI Lymphocyte/ HL-60” value in the data set on HL-60 (human leukemia) (setting [9]) came to 1.0. Further, the solubility at 2 h in [4] is 0.0606 µg/mL (≈ 0.155 µM). Besides, in the data set with MDA-MB435 (melanoma) [5], the IC50 was over 25 µM. Further, the “SI Lymphocyte/ NCI-H358M” value in data set [6] (setting [9]) was 1. This compound yielded an IC50 in data set [6] (NCI-H358M, Table 2, MTT) of over 25 µM. This compound also yielded a half-maximal inhibitory concentration (IC50) in the data set on human lymphocytes of over 64.1 µM. For the same compound, the IC50 in [7] (Homo sapiens, SF-295, Table 2, MTT, read-out: IC50 SF295) was over 25 µM. Moreover, the “SI Lymphocyte/ SF-295” value in data set [7] (setting [9]) worked out at 1.0. The compound further showed an IC50 in the data set with PC3M (prostate cancer) (Homo sapiens, PC-3M, Table 2, MTT) of over 25 µM. For the same compound, the “SI Lymphocyte/ PC3M” value with PC3M (prostate cancer) (setting [9]) came to 1. The IC50 with tumor cell lines was over 25 µM. The compound further yielded an IC50 in [8] (Homo sapiens, HCT-8, Table 2, MTT) of over 25 µM. In data set [8] (setting [9]), the “SI Lymphocyte/ HCT-8” value is reported as 1.0.
